Data published in patent publication US5998596A, “Inhibition of protein kinase activity by aptameric action of oligonucleotides” (The United States of America as represented by the …).
Entries after “also recorded” stand apart in the source; their conditions may differ.

Tests used:
p145^abl kinase = assay: Immunoprecipitation kinase assay of p145abl; type: biochemical
Method: (§1) The p210^bcr-abl kinase, src kinase and cdc-2 kinase were immunoprecipitated from K562 cells. The p145^abl kinase was immunoprecipitated from PC3M cells, PDGF receptor kinase from 3T3 cells, and EGF receptor kinase from A431 cells. MAP kinase was utilized as a pure protein and lck kinase was immunoprecipitated from peripheral blood lymphocytes of a normal volunteer.
Cells were washed in phosphate buffered saline (PBS) and 0.5-5×10^6 cells were solubilized in 1 ml of the specified cell lysis buffers. Unless otherwise stated, all cell lysis buffers contained the following protease inhibitors: 20 μg/ml leupeptin, 1 μg/ml aprotinin, and 1 mM phenylmethylsulfonylfluroide. For p210^bcr-abl and […] immunoprecipitation, cells were lysed with ABL lysis buffer (25 mM imidazole, pH 7.2, 0.5% NP40, 50 mM NaCl, 1 mM Na3 VO4) and lysates were clarified at 14,000 g. 4° C. for 30 minutes. Cell lysis for all other proteins was performed according to the references describing the various immunoprecipitation kinase assays.
Immunoprecipitation kinase assays of p210^bcr-abl p145^abl were performed as described, with modifications (15). Briefly, for p210^bcr-abl, 1 μg of anti-bcr antibody (clone 7C6, Oncogene Science, Uniondale, N.Y.) was added to lysates prepared from 0.5-1×10^6 K562 cells. […]

lck kinase = assay: Immunoprecipitation kinase assay of lck; type: biochemical
Excerpt: as §1
(§2) Epidermal growth factor receptor (EGFR) was immunoprecipitated with 10 ,g anti-EGFR antibody (clone LA1) and human recombinant epidermal growth factor (both from Upstate Biotechnology Inc., Lake Placid, N.Y.). The assay was performed as described (17) but without removing the EGFR from the protein A-antibody solid support. Instead, epidermal growth factor, at a final concentration of 100 nM, was added to the kinase reaction mixture. Platelet derived growth factor receptor (DGFR) was immunoprecipitated with anti-human type A/type B PDGFR antibody (Upstate Biotechnology Inc.) and immune complex kinase assays performed as referenced (18) except that protein A-Sepharose coated with rabbit anti-mouse immunoglobulin was used instead of formalin-fixed Staphylococcus aureus to bind PDGFR-antibody conjugates. C-src was immunoprecipitated with anti-v-src antibody (Ab-1; Oncogene Science) and assayed as previously described (19) with the addition of enolase as exogenous substrate. […]

[1] = test system: Epidermal growth factor receptor (EGFR); assay: EGFR autophosphorylation immunoprecipitation kinase assay; type: biochemical
Excerpt: as §1, §2

[2] = test system: Platelet derived growth factor receptor (PDGFR); assay: PDGFR autophosphorylation immune complex kinase assay; type: biochemical
Excerpt: as §1, §2

p210^bcr-abl kinase = assay: Phosphorylation of exogenous substrate enolase by p210bcr-abl; type: biochemical, human
Method: Immunoprecipitation kinase assays of p210^bcr-abl p145^abl were performed as described, with modifications (15). Briefly, for p210^bcr-abl, 1 μg of anti-bcr antibody (clone 7C6, Oncogene Science, Uniondale, N.Y.) was added to lysates prepared from 0.5-1×10^6 K562 cells. For p145^abl, 1 μg of anti-c-abl antibody (clone 24-21), which binds to the C-terminal domain of p145^abl, was added to lysates prepared from 5×10^6 PC3M cells. After incubating 1 hour at 4° C., complexes were precipitated by incubating with protein A-Sepharose coated with rabbit anti-mouse immunoglobulin (Cappel Research Products, Durham, N.C.) for 30 minutes. The complexes were then washed as follows: ABL lysis buffer×2, PBS×1, and ABL assay buffer×1 (24 mM imidazole, pH 7.2, 1 mg/ml bovine serum albumin, and 10 mM MnCl). For p145^abl assays ABL assay buffer contained 20 mM MnCl. To access the activity of p210^bcr-abl on substrate phosphorylation, acid inactivated enolase (Sigma Chemical Co., St. Louis, Mo.) was added as described (15).
ODNs were added to kinase reaction buffers not more than 5 minutes prior to the addition of ATP. […]
P210^bcr-abl from K562 cells was immunoprecipitated and kinase assays performed in the presence or absence of 1 μM BCR-AS with varying amounts of enolase present. […] Note that inhibition of autophosphorylation can be readily seen in the absence of enolase (see lanes 5 and 10).

[3] = test system: cellular phosphotyrosine content of K562 cells; assay: Western analysis of total cellular phosphotyrosine content after electroporation of K562 cells; type: cell-based, human; conditions: K562 cells electroporated with 100 μM ODN, one hour later
Method: One hundred micrograms of protein from cell lysates were separated on a 7% SDS polyacrylamide gel. Transfer was performed overnight at 50 volts, 4° C., in a 0.2 M glycine, 25 mM Tris, pH 8.3, 0.15% SDS, 20% methanol buffer, onto […] nitrocellulose (Schleicher and Schuell Inc.). For cellular phosphotyrosine blots, Western probing was performed as described previously, with modifications (SARTOR, et al, 1991). Briefly, membranes were blocked for 2 hours with 5% albumin in TTBS (20 mM Tris HCL, pH 7.6; 0.05% Tween 20; 0.9% sodium chloride), probed for 1 hour with antiphosphotyrosine antibody (Upstate Biotechnology Inc., Lake Placid, N.Y.) diluted 1:500 in TTBS, followed by rabbit anti-mouse antibody (Cappel Research Products) and then [^125 I] protein A Sepharose (Amersham Corp., Arlington Heights, Ill.). Membranes were exposed to Kodak X-OMAT AR film overnight at -70° C. with intensifying screens.
Electroporation was performed as described (40). Briefly, 1-5×10^6 cells in 1 ml of RPMI 1640 with 10% fetal calf serum were placed into 0.4 cm gap electroporation chambers and electroporated with a Cell-Porator Electroporation System 1 (all from GIBCO BRL, Grand Island, N.Y.) at 800 microfarrads, 300 volts, at room temperature. Cells were then incubated at 37° C. for 1 hour before manipulation.
In K562 cells p210^bcr-abl is a major kinase responsible for protein tyrosine phosphorylation (38, 39). Changes in enzyme activity are therefore reflected by changes in cellular phosphotyrosine content.

[4] = Cerenkov counting of excised gel slices, mean ± SD
[5] = Cerenkov counting of excised gel slices
[6] = ODN1 concentrations greater than 2 logs above the Ki for p210^bcr-abl

“5'-GTCCACCATGGCGCGGCCGGC-3' [ODN1] (phosphorothioate caps, further chemistry not given here) [21mer ODN complementary to nucleotides -12 to +9 of the p210bcr-abl mRNA, phosphorothioate capped unless otherwise specified]” was tested, and the “sensitivity of p145^abl compared with p210^bcr-abl” value (p145^abl kinase) was “equally sensitive”, the IC50 (p145^abl kinase; [4]) was 0.62 ± 0.24 µM and the IC50 (lck kinase; [5]) was greater than 50 µM. The “inhibition of lck (in words)” value (lck kinase; [6]) was “not significantly inhibited”, the IC50 [1, 5] was greater than 100 µM and the “inhibition of EGF receptor (in words)” value [1, 6] was “not significantly inhibited”. For the same substance, the “sensitivity of PDGF receptor relative to p145^abl or p210^bcr-abl” value [2] was “almost a log less sensitive”, the IC50 [2, 4] was 4.4 ± 2.3 µM and the “phosphorylation of enolase by p210^bcr-abl” value (p210^bcr-abl kinase; 1 μM BCR-AS, varying amounts of enolase, three minute reaction) was “no effect”. The “inhibition of enolase phosphorylation by p210^bcr-abl” value (p210^bcr-abl kinase; ODN1 concentrations of up to 50 μM) was “no significant inhibition”, the “total cellular protein phosphotyrosine content” value ([3]; listed as BCR-AS) was “dropped significantly; also recorded: reduced protein phosphotyrosine content” and the “total cellular protein phosphotyrosine content” value ([3]; listed as BCR-AS phosphorothioate capped) was “equally effective”.
